Assays:
[1] = tested on: estrogen receptor (ER)-positive, HER2-negative locally advanced or metastatic breast cancer; test: AMEERA-3 open label randomized Phase 2 trial, efficacy (PFS, OS, ORR, CBR, DCR per RECIST 1.1 by ICR); assay type: in vivo, human
[2] = target: T1, UGT1A1 (Homo sapiens, UniProt P22309); conditions: cited from earlier work
T1 sequence (P22309 26-533): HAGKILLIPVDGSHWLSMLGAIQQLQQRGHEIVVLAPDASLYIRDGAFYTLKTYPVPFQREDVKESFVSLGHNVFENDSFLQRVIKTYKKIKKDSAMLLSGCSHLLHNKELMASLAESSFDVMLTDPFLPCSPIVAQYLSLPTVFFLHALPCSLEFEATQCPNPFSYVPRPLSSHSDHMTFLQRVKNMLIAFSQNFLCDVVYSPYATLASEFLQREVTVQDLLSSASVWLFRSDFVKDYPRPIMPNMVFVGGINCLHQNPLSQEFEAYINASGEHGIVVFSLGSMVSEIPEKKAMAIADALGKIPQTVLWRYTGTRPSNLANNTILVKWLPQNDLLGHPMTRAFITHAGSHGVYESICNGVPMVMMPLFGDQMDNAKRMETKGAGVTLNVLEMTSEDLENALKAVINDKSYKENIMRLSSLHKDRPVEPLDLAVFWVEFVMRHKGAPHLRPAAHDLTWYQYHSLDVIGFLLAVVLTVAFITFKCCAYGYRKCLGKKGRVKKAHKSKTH

[3] = AMEERA-3 safety: treatment-emergent adverse events, safety population; assay type: in vivo
Source text: Secondary endpoints are defined as follows: • Overall survival: the time interval from the date of randomization to the date of documented death (due to any cause); • Objective response rate: the proportion of participants who have a confirmed complete response (CR) or partial response (PR), as best overall response (BOR) derived from overall response determined by ICR as per RECIST 1.1, from the date of randomization to the date of end of treatment; • Disease control rate: the proportion of participants who have a confirmed CR, PR, stable disease (SD), or Non-CR/Non-PD as BOR determined by ICR as per RECIST 1.1 from the date of randomization to the date of end of treatment; • Clinical benefit rate: the proportion of participants who have a confirmed CR, PR, SD, or Non-CR/Non-PD for at least 24 weeks determined by ICR as per RECIST 1.1, from the date of randomization to the date of end of treatment; • Progression-free survival as per ESR1 status: determined at Cycle 1 Day 1; • Overall safety profile: evaluated by adverse events/serious adverse events and laboratory abnormalities.
Concerning monitoring of adverse events, mention may be made of adverse events of special interest (AESI), who correspond to an adverse event (serious or nonserious) of scientific and medical concern specific to the Sponsor's product or program, for which ongoing monitoring and immediate notification by the Investigator to the Sponsor is required. Such events may require further investigation in order to characterize and understand them. For example: pregnancy of a participant or of a female partner of a participant entered in a study with IMP, symptomatic overdose with IMP, increase in ALT of a grade equal to or greater than 3, or photosensitivity.
The analysis populations were defined as follows: • Enrolled population: all patients who signed the informed consent form. • Intent-to-treat (ITT) population: all patients from the enrolled population and for whom there was a confirmation of successful allocation of a randomization number by Interactive Response Technology (IRT). Patients were analyzed according to the treatment arm assigned at randomization. • Safety population: all patients randomly assigned to study intervention and who took at least one dose of study intervention. Patients were analyzed according to the treatment arm they actually received.
The overview of adverse events (TEAEs: Treatment Emergent Adverse Events; SAEs: Serious Adverse Events; AESI: Adverse Events of Special Interest) is presented in Table 13.

[4] = target: T2, UGT1A4 (Homo sapiens, UniProt P22310); conditions: cited from earlier work
T2 sequence (P22310 29-534): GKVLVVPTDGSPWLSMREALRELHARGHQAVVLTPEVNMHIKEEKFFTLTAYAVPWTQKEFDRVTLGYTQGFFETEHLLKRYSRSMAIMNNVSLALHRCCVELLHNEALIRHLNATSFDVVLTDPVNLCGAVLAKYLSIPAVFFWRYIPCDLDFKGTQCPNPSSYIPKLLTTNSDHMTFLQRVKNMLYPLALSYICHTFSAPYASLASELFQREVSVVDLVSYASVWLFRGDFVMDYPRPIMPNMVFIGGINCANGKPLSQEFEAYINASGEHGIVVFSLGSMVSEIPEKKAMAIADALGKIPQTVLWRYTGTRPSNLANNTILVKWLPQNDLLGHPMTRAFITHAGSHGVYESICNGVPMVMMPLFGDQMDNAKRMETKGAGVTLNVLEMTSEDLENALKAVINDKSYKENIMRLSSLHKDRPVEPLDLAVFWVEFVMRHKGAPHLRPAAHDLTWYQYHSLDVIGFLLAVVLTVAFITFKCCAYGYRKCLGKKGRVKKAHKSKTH

[5] = amcenestrant 400 mg QD, Kaplan-Meier

Q: For O=C(O)c1ccc2c(c1)CCCC(c1ccc(Cl)cc1Cl)=C2c1ccc(O[C@H]2CCN(CCCF)C2)cc1 [Amcenestrant, 6-(2,4-dichlorophenyl)-5-[4-[(3S)-1-(3-fluoropropyl)pyrrolidin-3-yl]oxyphenyl]-8,9-dihydro-7H-benzo[7]annulene-2-carboxylic acid], which “Reduction in risk for disease progression or death” value ([1]; ESR1 mutation at baseline, amcenestrant compared to PCEM) is on record?
A: 10.0%

Q: What about the “Progression-free survival rate at 12 months” value [1, 5] of the same molecule?
A: 20.4%

Q: And the “Progression-free survival rate at six months” value [1, 5]?
A: 35.5%

Q: What about the “Substrate of UGT1A1” value [2] of the same molecule?
A: substrate

Q: And the Bradycardia/QTc prolongation ([3]; amcenestrant treatment arm)?
A: no bradycardia/QTc prolongation is observed

Q: What about the Gastrointestinal disorders ([3]; mostly of Grade 1 or 2) of the same molecule?
A: 44.8%

Q: And the “Skin and subcutaneous tissue disorders” value ([3]; mostly of Grade 1 or 2)?
A: 18.9%

Q: What about the “Participants with any AESI, %” value ([3]; safety population) of the same molecule?
A: (0.7) %

Q: And the “Participants with any TEAE leading to treatment discontinuation, %” value ([3]; safety population)?
A: (3.5) %

Q: What about the “Participants with any TEAE, %” value ([3]; safety population) of the same molecule?
A: (82.5) %

Q: And the “Participants with any grade ≥3 TEAE, %” value ([3]; safety population)?
A: (21.7) %

Q: And the “Participants with any treatment emergent SAE, %” value ([3]; safety population)?
A: (16.1) %

Q: And the “Participants with any treatment-related TEAE, %” value ([3]; safety population)?
A: (44.8) %

Q: And the “Participants with any grade 5 TEAE, %” value ([3]; safety population, during the treatment period)?
A: (3.5) %

Q: And the “Substrate of UGT1A4” value [4]?
A: substrate
